From patent publication US5886178A, “3-aroylbenzylpyridazinone derivatives” (Syntex (U.S.A.) Inc., priority 1997, dated 1999)

Tests used:
[1] = system: prostaglandin E2 synthesis; assay: Inhibition of eicosanoid (PGE2) synthesis in vivo, carrageenan air-pouch model in rats; design: species or system rat; conditions: oral, male rats
Procedure: In this assay, an air-pouch is created in the rat and the PGE2 levels in the air-pouch exudate are measured by enzyme immunoassay. Briefly, male rats were anesthetized using a 60:40 CO2 :O2 mixture and subsequently injected subcutaneously with 20 ml of sterilized air, under aseptic conditions, in the proximal area of the dorsum. This injection of sterile air causes the creation of a subcutaneous "air pouch". The next day, a further 10 ml of sterile air was injected into the previously formed pouch using the same technique. […] Control rats received vehicle alone. After 30 minutes, 5 ml of a 0.5% solution of carrageenan (Sigma, Lambda Type IV) was injected into the air pouch. The rats were euthanized 3 hr after the compound administration. […] The total exudate volume was recorded, and the samples were analyzed for PGE2 and 6-keto PGF1 by ELISA (Titerzyme®, PerSeptive Diagnostics) and TxB2 by radioimmuno assay (New England Nuclear Research, Catalog No. NEK-037), according to the manufacturer's directions.
The mean concentrations of PGE2 were calculated for each group. The anti-inflammatory activity of test materials is expressed as the percent inhibition of PGE2 formation in the test group relative to the control group.

[2] = Acetic Acid-induced Rat Writhing Assay (analgesic activity); type: in vivo; conditions: 10 mg/Kg, oral, male Sprague Dawley rats
Source text: The analgesic activity of compounds of this invention may be determined by the Acetic Acid-induced Rat Writhing Assay, using a modification of the method described in Berkenkopf, J. W. and Weichman, B. M. "Production of Prostacyclin in Mice following Intraperitoneal Injection of Acetic Acid, Phenylbenzoquinone and Zymosan: Its Role in the Writhing Response". Prostaglandins: 36: 693-70 (1988). This assay is one of several acute assays which have been used to assess the analgesic activity of NSAIDs, and is considered predictive of human efficacy. The test materials were administered orally to male Sprague Dawley rats in a volume of 1 ml/100 g body weight as solutions or suspensions in an aqueous vehicle containing 0.9% NaCl, 0.5% sodium carboxymethyl-cellulose, 0.4% polysorbate 80, 0.9% benzyl alcohol and 97.3% water. Control rats received vehicle alone. One hour after compound administration, 0.3 ml/100 g body weight of 0.75% solution of acetic acid was injected intraperitoneally. The acetic acid injection induces a series of characteristic writhing responses, which were counted over the period between 15 and 30 minutes after the injection. The analgesic activity of test materials is expressed as the percentage inhibition of writhing in the test group relative to the control group.

[3] = Carrageenan-induced paw edema in the rat (anti-inflammatory activity); type: in vivo; conditions: 3 h, 10 mg/Kg, oral, female rats, read-out: % inhibition of increase in hind paw weight
Procedure: The anti-inflammatory activity of compounds of this invention was determined by measuring the inhibition of carrageenan-induced paw edema in the rat, using a modification of the method described in Winter C. k et al (1962) "Carrageenan-Induced Edema in Hind Paw of the Rat as an Assay for Anti-inflammatory Drugs". Proc. Soc. Exp. Biol. Med. 111: 544-547. This assay has been used as a primary in vivo screen for anti-inflammatory activity of most NSAIDs, and is considered predictive of human efficacy. Briefly, test materials were administered orally to female rats in a volume of 1 ml prepared as solutions or suspensions in an aqueous vehicle containing 0.9% NaCl, 0.5% sodium carboxymethyl-cellulose, 0.4% polysorbate 80, 0.9% benzyl alcohol and 97.3% distilled water. Control rats received vehicle alone. After 1 hr 0.05 ml of a 0.5% solution of Carrageenan (Type IV Lambda, Sigma Chemical Co.) in 0.9% saline was injected into the subplantar region of the right hind paw. Three hours later the rats were euthanized in a carbon dioxide atmosphere; hind paws were removed by severing at the tatso-crural joint; and the left and right paws were weighed. The increase in weight of the right paw over the left paw was obtained for each animal and the mean increases were calculated for each group. The anti-inflammatory activity of the test materials is expressed as the percent inhibition of the increase in hind paw weight of the test group relative to the vehicle-dosed control group.
The anti-inflammatory activities (expressed as % inhibition) of some of the compounds of the invention were: […]

[4] = biological target: COX I (Homo sapiens, UniProt P23219); assay: Inhibition of COX I in vitro, partially purified enzyme, radiometric assay; type: biochemical; design: made in house; conditions: 20 micromolar arachidonic acid
Sequence of COX I (P23219 24-599): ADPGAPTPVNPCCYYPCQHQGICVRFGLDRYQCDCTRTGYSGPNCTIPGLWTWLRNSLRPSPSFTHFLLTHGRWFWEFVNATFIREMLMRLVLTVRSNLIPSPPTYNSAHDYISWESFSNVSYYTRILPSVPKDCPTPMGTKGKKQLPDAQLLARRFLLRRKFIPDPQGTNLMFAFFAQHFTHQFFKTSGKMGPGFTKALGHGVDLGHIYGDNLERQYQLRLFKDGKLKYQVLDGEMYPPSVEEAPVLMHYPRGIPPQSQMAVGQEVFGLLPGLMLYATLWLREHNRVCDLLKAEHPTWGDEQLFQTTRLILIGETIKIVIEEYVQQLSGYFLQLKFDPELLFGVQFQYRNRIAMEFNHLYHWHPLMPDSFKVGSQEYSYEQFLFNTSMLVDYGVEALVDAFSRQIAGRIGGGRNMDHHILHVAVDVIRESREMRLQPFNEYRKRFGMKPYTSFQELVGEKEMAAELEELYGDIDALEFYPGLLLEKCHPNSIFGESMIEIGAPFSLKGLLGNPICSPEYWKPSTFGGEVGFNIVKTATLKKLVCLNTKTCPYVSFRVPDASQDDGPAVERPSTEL
Procedure: (§1) The COX I and COX II inhibitory activity of compounds of this invention in vitro was determined using partially purified COX I and COX II enzymes, prepared as described in J. Barnett et al, Biochim. Biophys.
(§2) COX I and COX II samples were diluted with Tris-HCl buffer (50 mM Tris-HCl, pH 7.9) containing 2 mM EDTA and 10% glycerol and reconstituted by incubating first with 2 mM phenol for 5 minutes and then with 1 micromolar hematin for an additional 5 minutes. 125 μl of the reconstituted COX I or COX II enzyme were preincubated for 10 minutes at room temperature in a shaking water bath with the compounds of the invention dissolved in 2-15 μl of DMSO or the carrier vehicles (control samples). The enzyme reaction was initiated by adding 25 μl of 1-[14C]arachidonic acid (80,000-100,000 cpm/tube; 20 micromolar final concentration) and the reaction was allowed to continue for an additional 45 seconds. The reaction was terminated by adding 100 μl of 2N HCl and 750 μl water. An aliquot (950 μl) of the reaction mixture was loaded onto a 1 ml C18 Sep-Pak column (J. T. Baker, Phillipsburg, N.J.) which had been previously washed with 2-3 ml methanol and equilibrated with 5-6 ml distilled water. Oxygenated products were quantitatively eluted with 3 ml of acetonitrile/water/acetic acid (50:50:0.1, v/v) and the radioactivity in the eluate determined in a scintillation counter.

[5] = biological target: T1, COX II (Homo sapiens, UniProt P35354); assay: Inhibition of COX II in vitro, partially purified enzyme, radiometric assay; type: biochemical; design: made in house; conditions: 20 micromolar arachidonic acid
T1 sequence (P35354 18-604): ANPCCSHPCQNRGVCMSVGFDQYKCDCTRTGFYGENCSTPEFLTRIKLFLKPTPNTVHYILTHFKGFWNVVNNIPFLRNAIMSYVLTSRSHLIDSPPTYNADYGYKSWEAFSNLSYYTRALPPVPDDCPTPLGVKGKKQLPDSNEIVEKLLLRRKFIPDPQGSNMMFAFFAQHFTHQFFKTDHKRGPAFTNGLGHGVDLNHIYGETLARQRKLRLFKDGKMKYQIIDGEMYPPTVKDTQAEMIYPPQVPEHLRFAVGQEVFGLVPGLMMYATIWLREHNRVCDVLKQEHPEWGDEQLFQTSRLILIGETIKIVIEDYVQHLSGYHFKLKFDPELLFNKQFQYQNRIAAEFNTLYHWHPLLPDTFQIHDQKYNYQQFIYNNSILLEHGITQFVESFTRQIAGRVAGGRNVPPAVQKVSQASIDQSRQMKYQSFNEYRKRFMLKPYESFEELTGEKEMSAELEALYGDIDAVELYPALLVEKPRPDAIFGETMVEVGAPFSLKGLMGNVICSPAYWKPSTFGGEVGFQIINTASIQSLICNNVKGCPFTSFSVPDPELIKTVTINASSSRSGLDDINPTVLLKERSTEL
Procedure: as §1, §2

[6] = Alzheimer's patients; Rogers, J., et. al., Neurology, (1993), 43, 1609; cited from earlier work

| Compound | % inhibition of air pouch PGE2 formation ([1]; 10 mg/Kg) | % inhibition of writhing responses [2] | inhibition in vivo at 10 mg/kg [3] | IC50 [4] | IC50 [5] | % inhibition of air pouch PGE2 formation ([1]; 2-5 mg/Kg) | effect on cognitive decline [6] |
| --- | --- | --- | --- | --- | --- | --- | --- |
| COc1ccc(C(=O)c2cccc(Cc3ccc(=O)[nH]n3)c2Cl)cc1 [Cpd 2, 6-[3-(4-methoxybenzoyl)-2-chlorobenzyl]-2H-pyridazin-3-one] | 32% | 9% | 20% | 57 µM | 0.1 µM | – | – |
| COc1ccc2c(c1)c(CC(=O)O)c(C)n2C(=O)c1ccc(Cl)cc1 [Indomethacin, reference compound] | – | – | – | – | – | > 70% | inhibit the cognitive decline of Alzheimer's patients |
